# ChEMBL document CHEMBL4346660, “Cryptolepine and aromathecin based mimics as potent G-quadruplex-binding, DNA-cleavage and anticancer agents: Design, synthesis and DNA targeting-induced apoptosis” (Eur J Med Chem, 2019)
# Calls of active or inactive are those of the source. The calls are words filed in the database; no cut-off is given here.
# Columns and labels:
# MGC-803 [1] = test: Cell cycle arrest in human MGC803 cells assessed as down regulation of cyclin B1 expression at 0.5 to 2.5 uM incubated for 24 hrs by Western blot analysis; assay type: functional, cell-based
# MGC-803 [2] = test: Cell cycle arrest in human MGC803 cells assessed as accumulation of cells at S phase at 0.5 uM incubated for 48 hrs by propidium iodide staining based flow cytometry (reference value: 32.97%); assay type: functional
# MGC-803 [3] = test: Induction of apoptosis in human MGC803 cells assessed as early apoptotic cells at 1 uM incubated for 24 hrs by Annexin V-FITC/propidium iodide staining based flow cytometry (reference value: 0.97 +/- 0.10 %); assay type: functional
# MGC-803 [4] = test: Induction of apoptosis in human MGC803 cells assessed as activated caspase-9 level at 2.5 uM after 24 hrs by FITC staining-based flow cytometric analysis (Rvb= 3.14%); assay type: functional
# DNA = test: Binding affinity to Escherichia coli supercoiled pBR322 DNA assessed as DNA intercalation at 0.5 to 10 uM after 3 hrs by ethidium bromide staining-based agarose gel electrophoresis analysis; assay type: nucleic-acid assay
# MGC-803 [5] = test: Induction of apoptosis in human MGC803 cells assessed as increase in AIF expression at 0.5 to 2.5 uM after 24 hrs by Western blot analysis; assay type: functional, cell-based
# [6] = Toxicity in human MGC803 cell xenografted BALB/C mouse assessed as decrease in body weight at 6 to 12 mg/kg, ip administered every other day for 2 weeks measured during compound dosing; assay type: organism-based; settings: in vivo, 336 h
compound,measurement,setting,value
CN(C)CCCNc1c2c(nc3ccc(F)cc13)-c1ccccc1C2,Activity,MGC-803 [1],Active
same,Activity,MGC-803 [2],44.73%
same,Activity,MGC-803 [3],22%
same,Activity,MGC-803 [4],46.9%
same,Activity,DNA,Active
same,Activity,MGC-803 [5],Active
same,Activity,[6],Non-Toxic
